In ChEMBL document CHEMBL1151368, “Some new decussine-type alkaloids from Strychnos decussata, Strychnos dale and Strychnos elaecocarpa” (1981):
Activity calls are given as the source filed them. The calls are words filed in the database; no cut-off is given here.

Assays:
Format in all cases: functional
Rattus norvegicus [1] = organism: Rattus norvegicus; assay: Muscle relaxant activity in rat assessed as reduction in electrically stimulated phrenic nerve-induced diaphragm contraction at 5.1 ug/ml in presence of synstigmine
Rattus norvegicus [2] = organism: Rattus norvegicus; assay: Muscle relaxant activity in rat assessed as reduction in electrically stimulated phrenic nerve-induced diaphragm contraction at 5.1 ug/ml; parameters: scale not given: the % may be the effect or the level left
Rattus norvegicus [3] = organism: Rattus norvegicus; assay: Muscle relaxant activity in rat assessed as reduction in electrically stimulated phrenic nerve-induced diaphragm contraction at 50 ug/ml

SMILES | Activity (Rattus norvegicus [1]) | Activity (Rattus norvegicus [2]) [%] | Activity (Rattus norvegicus [3])
C[C@@H]1c2cnccc2C=C2c3c(c4ccccc4n31)CCN2C [DECUSSINE] | Active | 50 | –
C[C@@H]1c2cnccc2CC2c3c(c4ccccc4n31)CCN2C (stereo partly drawn) | – | – | inactive
